# Test results taken from patent US20240156852A1, “CARBON NANOPARTICLE COMPOSITIONS AND METHODS FOR DELIVERING THERAPEUTICS TO SPECIFIC TARGET SITES” (SINON NANO SCIENCES INC., priority 2021, published 2024).
# Settings: male, Wistar, rat, in vivo, po
# Description: Wistar rats (male, 200-220 g) were obtained from the CPCSEA registered animal vendor. Animals were maintained at temperature of 23±2° C., relative humidity of 30% to 70%, and a 12 h dark-light cycle. All of the animals had free access to water and rodent chow at all times, and all of the experimental animals were fed under the above conditions throughout the acclimatization period. Wistar rats (n=1, Male) were randomly taken for each of the two groups. […] All the rats were fasted for 12 hr before administration. The blood collection was done from retro-orbital plexus using an anticoagulant-coated capillary tube at 0 (pre-dose), 0.25, 0.5, 1, 2, 4, 6, 8, and 24 hr respectively following oral administration from both the rats (Group 1 and 2). At each time point, blood sample (125 μL) was collected in EDTA tubes and tubes were immediately centrifuged at 3000 rpm for 10 min to obtain the plasma. The separated plasma was frozen at −20° C. before analysis.
# The biological samples were thawed at room temperature. After vortexing for 30 seconds, 100 μL of sample was taken into 1.5 mL eppendorf tubes, 600 μL of ice-cold acetonitrile was added to denature the proteins. The tubes were vortexed for 2 minutes followed by centrifugation at 5000 rpm for 10 minutes. […]
structure (smiles),measurement,value
CC(=O)O[C@H]1C(=O)[C@@]2(C)[C@H]([C@H](OC(=O)c3ccccc3)[C@]3(O)C[C@H](OC(=O)[C@H](O)[C@@H](NC(=O)c4ccccc4)c4ccccc4)C(C)=C1C3(C)C)[C@]1(OC(C)=O)CO[C@@H]1C[C@@H]2O [Paclitaxel],plasma concentrations (below quantitation limits),< 0.0312 µg/mL
